Publication PMC5384962, “First-in-human studies of seletalisib, an orally bioavailable small-molecule PI3Kδ inhibitor for the treatment of immune and inflammatory diseases” (European Journal of Clinical Pharmacology, 2017)
Read-outs that look alike come from different tables or passages of the source.

How the values were obtained:
[1] = Study-1 Part-B multiple ascending dose pharmacokinetics (plasma and urine); format: in vivo, human; conditions: for Fe(0–24) / CLss/F / Cmaxss / Ctrough / Vzss/F / AUC(0-t) / Tmax / Cmax / half-life / CL renal / Ae(0–24): Study-1 Part-B; for Fe(0–24) / CLss/F / Cmaxss / Ctrough / Vzss/F / AUC(0-t) / Cmax / half-life / CL renal / Ae(0–24): geo mean (GeoCV%); for AUC(0-t) / Tmax / Cmax / half-life / CL renal: human, oral; for AUC(0-t) / Tmax / Cmax / half-life: plasma; for AUC(0-t): read-out: AUC(0–24); for CL renal: urine and plasma; for Ae(0–24): urine
Source text: These were phase I, randomised, double-blind, placebo-controlled studies designed to evaluate the safety, tolerability, PK and PD profiles of seletalisib following oral administration of single ascending doses and multiple ascending doses. Study-1 was a first-in-human, double-blind (sponsor-, investigator- and subject-blind) study that had two parts: Part-A evaluated seletalisib (single ascending doses) in healthy adults (including evaluation of food effects; Table 1); Part-B evaluated seletalisib (multiple ascending doses) in healthy adults and subjects with mild-to-moderate psoriasis. Study-2 was also a double-blind study of seletalisib (single and multiple ascending doses) in healthy subjects, which investigated higher doses.
Plasma concentrations of seletalisib were measured by high-performance liquid chromatography with tandem mass spectrometry (see Online Resource S1 for further details). The following PK parameters were determined in each study: AUC for seletalisib, maximum observed plasma concentration of seletalisib after a single dose (Cmax) and at steady-state (Cmaxss), time of occurrence of Cmax (tmax, obtained directly from the observed plasma concentration-time curves), minimum observed plasma concentration of seletalisib at steady-state immediately before the next dose would be administered (Ctrough), apparent terminal half-life, apparent volume of distribution after single dosing (Vz/F) and at steady-state (Vzss/F) and apparent total body clearance after single dosing (CL/F) and at steady-state (CLss/F). Accumulation factor based on AUC(0–24) [R(AUC)] and accumulation factor based on Cmax [R(Cmax)] were determined on multiple dose day 14. The following study-specific PK parameters were also determined: Study-1, total amount of seletalisib excreted in urine (Ae), renal clearance (CLr) and fraction of drug excreted in urine; Study-2, AUC(0–10) in BID dose groups, terminal elimination rate constant in plasma (λz), mean residence time (MRT) and linearity factor (LF [AUC(0–24)ss/AUC]).
Methods for the calculation of seletalisib PK parameters are detailed in Online Resource S1.
Seletalisib PK parameters were calculated via non-compartmental analysis methods from the individual concentration-time data using Phoenix WinNonlin version 6.2 (Certara, Princeton, NJ, USA). Urine (Study-1 only) and plasma PK parameters of seletalisib were reported for each subject and summarised by study part and dose group. Geometric mean and percentage geometric coefficient of variation (GeoCV%) were reported for all parameters except for tmax, which was reported using median and range. Dose proportionality for AUC and Cmax at Day_1 (Study-1 [Part-A & Part-B]; Study-2, single ascending dose-Day_1) and at steady state at Day_14 (Study-1 [Part-B]; Study-2, multiple ascending dose-Day_14) was examined via the power model and reported graphically. In Study-1, an assessment of food effect (fed versus fasted) was made for Cmax and AUC from the data for subjects who received the same dose in fed and fasted states in Part-A.

basophil degranulation = assay: Study-1 ex vivo basophil degranulation (anti-IgE-driven CD63 expression, whole blood); format: in vivo, human; conditions: Study-1 Part-A, single doses; very high variability
Procedure: Subjects were assessed for basophil degranulation following stimulation at multiple time points, as described in Online Resource S1.
Degranulation of basophils was determined in whole blood by monitoring increased cell surface CD63 expression utilizing flow cytometry in an ex vivo stimulation assay driven by anti-IgE (Study-1) or anti-FcεR1 (Study-2). Briefly, blood was collected in lithium-heparin tubes (BD Biosciences, Oxford, UK) and stimulated with IgE or FcεRI cross-linking antibodies (eBiosciences, Hatfield, UK) for 12 min at 37°C. Following red blood cell lysis by addition of BD FACSlyse (BD Biosciences, Oxford, UK), samples were centrifuged and the supernatant discarded. The cell pellet was washed in PBS and re-suspended in fixative (5% formaldehyde in PBS). CD63 expression was determined on basophils (side-scatter low, CD123+HLA-DR-) and detected by flow cytometry using the BD antibody cocktail containing CD63, CD123, and anti-HLA-DR.

[2] = Study-1 Part-B safety/tolerability (adverse events, laboratory, OGTT), multiple doses; conditions: for Deaths: Study-1 multiple doses
Procedure: In Study-1 (Part-B), a total of 27 subjects were enrolled, two cohorts of healthy subjects (n = 9 in each) and one cohort of subjects with mild-to-moderate psoriasis (n = 9). Subjects were randomised (2:1) to ascending multiple doses of seletalisib (5, 8 and 15 mg) or placebo for 14 days.
Adverse events (AEs), serious AEs (SAEs), routine clinical laboratory parameters, vital signs and ECGs were monitored throughout the study periods and for ≤7 days post-administration of final-dose of seletalisib/placebo. The potential for seletalisib to cause gastrointestinal (GI) tract adverse effects was assessed by careful monitoring of subject reports of AEs such as abdominal pain, bloating, nausea, vomiting and alteration of bowel function (e.g. diarrhoea, constipation or bleeding). A formal safety review was conducted before each dose escalation. In Study-1 (Part-B), the potential for seletalisib to interfere with insulin signalling was assessed by monitoring blood glucose and C-peptide levels as part of the standard laboratory tests and by performance of oral glucose tolerance tests, measuring glucose and C-peptide levels, pre-dose and during exposure in all cohorts.
In each study, the primary population for analysis was the full analysis set (FAS), which comprised all subjects who had received ≥1 dose of seletalisib or placebo. PK analysis was performed on the PK per-protocol set (PK-PPS), which was a subset of the FAS consisting of subjects with no important protocol deviations likely to affect PK variables who received seletalisib; subjects who received placebo were excluded from this analysis. In Study-1 and Study-2, sample sizes of 57 and 36 subjects, respectively, were considered sufficient to permit assessment of the safety and tolerability of seletalisib and were not based on statistical considerations of power and sample size. In Study-1 (Part-A), a panel size of 15 subjects was selected to achieve good estimates of the PK/PD parameters.

[3] = power model, Study-1 Part B Day 14

Compound: [O-][n+]1cccc(-c2nc3c(Cl)cccc3cc2[C@@H](Nc2ncnc3cccnc23)C(F)(F)F)c1 [Seletalisib, seletalisib]
- geometric mean fraction of drug excreted in urine ([1]; Study-1 Part-A and Part-B, parent drug, across dose groups): ≤ 12%
- Fe(0–24) ([1]; 5 mg, Day 1): 4.02 (32.2) %
- CLss/F ([1]; 5 mg, Day 14): 1.97 (36.2) L/h
- Cmaxss ([1]; 5 mg, Day 14): 175 (29.1) ng/mL
- Ctrough ([1]; 5 mg, Day 14): 66.5 (47.3) ng/mL
- Fe(0–24) ([1]; 5 mg, Day 14): 6.80 (40.0) %
- Vzss/F ([1]; 5 mg, Day 14): 62.5 (20.0) L
- Fe(0–24) ([1]; 8 mg, Day 1): 4.24 (51.9) %
- CLss/F ([1]; 8 mg, Day 14): 1.83 (50.2) L/h
- Cmaxss ([1]; 8 mg, Day 14): 285 (41.7) ng/mL
- Ctrough ([1]; 8 mg, Day 14): 113 (67.8) ng/mL
- Fe(0–24) ([1]; 8 mg, Day 14): 7.60 (26.3) %
- Vzss/F ([1]; 8 mg, Day 14): 60.3 (40.1) L
- Fe(0–24) ([1]; 15 mg, Day 1): 5.42 (48.2) %
- CLss/F ([1]; 15 mg, Day 14): 2.75 (29.9) L/h
- Cmaxss ([1]; 15 mg, Day 14): 414 (23.0) ng/mL
- Ctrough ([1]; 15 mg, Day 14): 140 (35.0) ng/mL
- Fe(0–24) ([1]; 15 mg, Day 14): 12.0 (52.8) %
- Vzss/F ([1]; 15 mg, Day 14): 89.0 (24.9) L
- AUC(0-t) ([1]; 5 mg, 5 mg, Day 1): 1560 ng·h/mL
- Tmax ([1]; 5 mg, 5 mg, Day 1, median (range), read-out: tmax): 4.01 h
- AUC(0-t) ([1]; 5 mg, 5 mg, Day 14): 2540 ng·h/mL
- Tmax ([1]; 5 mg, 5 mg, Day 14, median (range), read-out: tmax): 3 h
- AUC(0-t) ([1]; 8 mg, 8 mg, Day 1): 2610 ng·h/mL
- Tmax ([1]; 8 mg, 8 mg, Day 1, median (range), read-out: tmax): 4 h
- AUC(0-t) ([1]; 8 mg, 8 mg, Day 14): 4370 ng·h/mL
- Tmax ([1]; 8 mg, 8 mg, Day 14, median (range), read-out: tmax): 3.5 h
- AUC(0-t) ([1]; 15 mg, 15 mg, Day 1): 3940 ng·h/mL
- Tmax ([1]; 15 mg, 15 mg, Day 1, median (range), read-out: tmax): 3.01 h
- AUC(0-t) ([1]; 15 mg, 15 mg, Day 14): 5460 ng·h/mL
- Tmax ([1]; 15 mg, 15 mg, Day 14, median (range), read-out: tmax): 3 h
- Tmax ([1]; day 1, fed, range across groups, read-out: time to peak plasma concentration): 3.01 to 4.01 h
- Tmax ([1]; day 14, fed, range across groups, read-out: time to peak plasma concentration): 3 to 3.5 h
- Cmax ([1]; 5 mg, Day 1): 122 ng/mL
- half-life ([1]; 5 mg, Day 14): 22 h
- Cmax ([1]; 8 mg, Day 1): 201 ng/mL
- half-life ([1]; 8 mg, Day 14): 22.8 h
- Cmax ([1]; 15 mg, Day 1): 322 ng/mL
- half-life ([1]; 15 mg, Day 14): 22.5 h
- CL renal ([1]; 5 mg, 5 mg, Day 1): 2.15 mL/min
- CL renal ([1]; 5 mg, 5 mg, Day 14): 2.23 mL/min
- CL renal ([1]; 8 mg, 8 mg, Day 1): 2.17 mL/min
- CL renal ([1]; 8 mg, 8 mg, Day 14): 2.32 mL/min
- CL renal ([1]; 15 mg, 15 mg, Day 1): 3.43 mL/min
- CL renal ([1]; 15 mg, 15 mg, Day 14): 5.48 mL/min
- Dose proportionality of Cmaxss (ng/mL): Dose (beta), Estimate [1, 3]: 0.78
- Dose proportionality of Cmaxss (ng/mL): Intercept, Estimate [1, 3]: 3.95
- Ae(0–24) ([1]; 5 mg, Day 1): 0.201 (32.2) mg
- Ae(0–24) ([1]; 5 mg, Day 14): 0.340 (40.0) mg
- Ae(0–24) ([1]; 8 mg, Day 1): 0.340 (51.9) mg
- Ae(0–24) ([1]; 8 mg, Day 14): 0.608 (26.3) mg
- Ae(0–24) ([1]; 15 mg, Day 1): 0.812 (48.2) mg
- Ae(0–24) ([1]; 15 mg, Day 14): 1.80 (52.8) mg
- inhibition of basophil degranulation compared with placebo (basophil degranulation): inhibition of basophil degranulation was observed in all seletalisib-treated groups
- Deaths ([2]; 5 mg, 14 days): 0 n (%)
- Deaths ([2]; 8 mg, 14 days): 0 n (%)
- Deaths ([2]; 15 mg, 14 days (psoriasis cohort)): 0 n (%)
- Deaths ([2]; seletalisib total): 0 n (%)
- glucose handling versus baseline (oral glucose tolerance test) ([2]; in vivo): no significant alteration
- neutrophil counts ([2]; in vivo): Modest reductions
- number of AEs of potential GI disturbance ([2]; in vivo): Six
- number of moderate AEs ([2]; in vivo): three
